Assay results taken from patent publication US20250090507A1, “Methods of Treating Cancer With a B-RAF Inhibitor” (MapKure, LLC, priority 2022, published 2025).
“Also recorded” adds a separate entry of the source.

How the values were obtained:
[1] = system: patients with tumors harboring B-RAF or K-RAS/N-RAS mutations; experiment: Phase 1 study: tumor response by investigators using RECIST v1.1; format: in vivo, human
Description: Objective response rate was defined as the proportion of patients who had confirmed CR or PR, assessed by the investigator using RECIST v1.1.
Clinical benefit rate was defined as the proportion of patients with best overall response (BOR) of confirmed CR, PR, or SD lasting ≥16 weeks.
Tumor imaging were performed within 21 days prior to the first study treatment. Results of standard of care tests or examinations performed prior to obtaining informed consent and ≤21 days prior to the first administration of IMP may be used for the purposes of screening rather than repeating the standard of care tests. During the study, tumor imaging was performed approximately every 8 (±1) weeks in the first year and approximately every 12 (±1) weeks thereafter. Tumor assessments were required to be performed on schedule regardless of whether study treatment has been administered or held.
Tumor response was assessed by the investigators using RECIST v1.1. The same evaluator should perform assessments, if possible, to ensure internal consistency across visits.
For the analysis of ORR, DCR, and CBR, summary tables presenting the number and proportion of responders with the 2-sided exact (Clopper-Pearson) 95% CI for response rates were presented. Summary of each response category of the BOR (confirmed CR, confirmed PR, unconfirmed CR, unconfirmed PR, SD, or PD) were presented as well. Waterfall plots of maximum tumor shrinkage per patient were presented.
Treatment emergent adverse events (TEAEs) were graded per NCI CTCAE v5.0. Tumor responses were assessed by investigators using RECIST v1.1.

[2] = system: RAF family of serine/threonine kinases; experiment: Preclinical RAF kinase inhibition; format: biochemical
[3] = Solubility of the solid form; format: physicochemical; conditions: Form I
Permeability = format: in vitro ADME
[4] = pH value of the solid form; format: physicochemical; conditions: Form I
Hygroscopicity = format: physicochemical; conditions: solid form, Form I

## O=C1CCc2c(Oc3ccc4c(c3)[C@H]3[C@H](NC(=O)Nc5cc(F)c(F)cc5F)[C@H]3O4)ccnc2N1 [Compound A, 1-((1S,1aS,6bS)-5-((7-oxo-5,6,7,8-tetrahydro-1,8-naphthyridin-4-yl)oxy)-1a,6b-dihydro-1H-cyclopropa[b]benzofuran-1-yl)-3-(2,4,5-trifluorophenyl)urea]
[1]; 33 efficacy evaluable patients
  clinical benefit rate: 42%
  disease control rate: 79%
  objective response rate: 18%
[1]; BRAF K601E/PIK3CA endometrial cancer
  Objective responders: 1
[1]; BRAF V600E LGSOC
  Objective responders: 1
[1]; BRAF V600E cholangiocarcinoma
  Objective responders: 1
[1]; BRAF V600E melanoma pts who progressed on prior BRAF/MEK and checkpoint inhibitors (1 CR, 1 PR)
  Objective responders: 2
[1]; Cohort 5 (40 mg QD)
  Patients evaluable for tumor response with PR at Week 8: 2 patients
[1]; FIG. 1, 2/2 CRC patients
  CRC patients with stable disease: 100%
[1]; FIG. 1, 4/5 responders
  responders that have melanoma: 80%
[1]; FIG. 1, 5/22 evaluable patients
  overall response rate: 22.7%
[1]; FIG. 1, 7/7 melanoma patients
  melanoma patients with stable disease, partial responses, or complete responses: 100%
[1]; FIG. 1, of 7 melanoma patients
  melanoma patients with partial responses: 3
  melanoma patients with stable disease: 3
[1]; FIG. 1, of 7 melanoma patients, 1 CT readout
  melanoma patients with complete responses: 1
[1]; KRAS G12D appendiceal cancer
  Objective responders: 1
[1]; NRAS G12S melanoma
  Objective responders: 1
[1]; NRAS Q61K melanoma
  Objective responders: 1
[1]; in 33 efficacy evaluable patients
  confirmed responses: 6
[1]; number of patients, 33 efficacy evaluable
  complete response: one
[1]; number of pts, 42 pts
  CR: 1
  SD≥24 weeks: 8
  cPR: 5
  uPR: 2
[1]; pts with no approved targeted therapy options / heavily pretreated patients
  Antitumor activity: Antitumor activity was observed; also recorded: encouraging anti-tumor activity was observed
[2]; monomer versus dimer
  Potency against RAF monomer & dimer: equal potency
[2]; preclinical
  Inhibitory activity against RAF kinases: potent inhibitory activity; also recorded: highly potent
[3]; in dimethyl sulfoxide (DMSO) and dimethylacetamide (DMA)
  Solubility: high solubility
[3]; in water
  Solubility: Low solubility
Permeability; class in words
  Permeability: High
Permeability; not told
  Papp: > 10 ×10⁻⁶ cm/s
[4]
  pH value: 5.76
Hygroscopicity
  Hygroscopicity: Hygroscopic
